Experimental data from patent US7842671B1, “Peptidomimetic inhibitors of STAT activity and uses thereof” (University of South Florida, priority 2003, dated 2010).

Experiments:
MDA-MB-231 = format: cell-based, human; details: 1 mM, MDA-MB-231, four days
Procedure: (§1) Cell proliferation, soft-agar growth and Apo-BrdU labeling studies. Proliferating fibroblasts and human tumor cells were counted by phase-contrast microscopy for viable cells (using tyrpan blue exclusion). Colony formation assays in six-well dishes and quantification of colonies by iodonitrotetrazolium violet have been previously described (Turkson, J. et al. (1999)). Treatment of cells with inhibitors was initiated 1 day after seeding cells by adding 75 μl of medium with or without inhibitor, and repeated every two to three days. Apoptosis was measured by Apo-BrdU labeling and following the supplier's (PharMingen; San Diego, Calif.) instructions.
(§2) Stat3 has an essential role in cell proliferation, and constitutively-active Stat3 is required for growth of transformed and tumor cells that harbor aberrant Stat3 signaling. Studies were performed to determine the effects of the peptidomimetic-mediated inhibition of Stat3 on cell proliferation using trypan blue exclusion for viable cell counts.

MDA-MB-453 = format: cell-based, human; details: 1 mM
Procedure: as §1, §2

MDA-MB-435 = format: cell-based, human; details: 1 mM, MDA-MB-435, four days
Procedure: as §1, §2

NIH3T3 = experiment: Apo-BrdU labeling and flow cytometry for apoptotic cells; format: cell-based, mouse; details: NIH3T3, 1 mM, 48 h, flow cytometry
Procedure: as §1
(§3) Because one of the functions of Stat3 is to protect transformed or tumor cells from apoptosis (Catlett-Falcone, R. et al. (1999b); Epling-Burnette, P. K. et al. (2001); Grandis, J. R. et al. (2000); Bowman, T. et al. (2000b); Bromberg, J. F. et al. (1999)), the ability of peptidomimetics of the invention (and PY*LKTK-MTS for comparison) (SEQ ID NO. 1) to induce apoptosis in Stat3-dependent transformed fibroblasts was evaluated. Viral Src-transformed NIH3T3/v-Src fibroblasts were treated with or without compounds for 48 h. Treated cells were then labeled with Apo-BrdU (PharMingen; San Diego, Calif.) for detection of DNA breaks.

NIH3T3/v-Src [1] = experiment: as above; format: cell-based, mouse; details: 48 h
Procedure: as §1, §3

NIH3T3/v-Src [2] = experiment: Soft-agar growth of v-Src-transformed fibroblasts; format: cell-based, mouse; details: 1 mM every 2-3 days
Procedure: as §1
Previous studies with PY*LKTK-MTS (SEQ ID NO. 1) (Turkson, J. et al., 2001)) confirmed that inhibition of constitutive Stat3 activation blocks Src transformation (Turkson, J. et al. (1998); Turkson, J. et al., (1999); Bromberg, J. R. et al. (1998)).

Stat5:Stat5 = experiment: EMSA of Stat5:Stat5 DNA-binding in nuclear extracts; format: biochemical, mouse; details: nuclear extracts pre-incubated 30 min, mean and SD of at least 3 assays, read-out: IC50 values against STAT Dimers, Stat5:Stat5
Procedure: (§4) Nuclear extract preparation and gel shift assays. Nuclear extracts were prepared from cell lines and used for electrophoretic mobility shift assay (EMSA) as previously described (Garcia, R. et al. (1997); Yu, C. L. et al. (1995); Turkson, J. et al. (1998)). In some cases, cells were pre-treated with peptidomimetics for the indicated times (12-48 h) prior to harvesting for nuclear extract preparation. In other studies, nuclear extracts were pre-incubated with peptidomimetics for 30 min at room temperature prior to incubation with radiolabeled probe. The ^32P-radiolabeled oligonucleotide probes used are hSIE (high affinity sis-inducible element, m67 variant, 5′-[…]-3′) (SEQ ID NO. 3) that binds both Stat1 and Stat3 (Garcia, R. et al. (1997); Wagner B. J. et al. (1990)) and MGFe (mammary gland factor element from the bovine β-casein gene promoter, 5′-[…]-3′) (SEQ ID NO. 4) that binds Stat1 and Stat5 (Gouilleux, F. et al. (1995); Seidel, H. M. et al. (1995)).
(§5) Peptidomimetics of the invention can be prepared by replacing prolyl or alanyl residue at the peptide bond that is N-terminal to the phosphotyrosine (Y*) of a peptide such as PY*L or AY*L with an organic substituent such as an optionally substituted aryl or heteroaryl group. The activities of STATs were measured in nuclear extracts (prepared from epidermal growth factor (EGF)-stimulated fibroblasts) as DNA-bound protein complexes by electrophoretic mobility shift assay (EMSA). STAT-DNA complexes detected include Stat3:Stat3 homodimers (upper band), Stat1:Stat3 heterodimers (intermediate band) and Stat1:Stat1 homodimers (lower band) (FIG. 1A) when a ^32P-labeled hSIE oligonucleotide probe is used, or Stat5:Stat5 (upper band) and Stat1:Stat1 dimers (lower band) (FIG. 1B) when ^32P-labeled MGFe is used as a probe.

Stat1:Stat1 = target: T1, Stat1:Stat1 (Mus musculus, UniProt P42225); experiment: EMSA of Stat1:Stat1 DNA-binding in nuclear extracts; format: biochemical
T1 construct: nuclear extracts (prepared from epidermal growth factor (EGF)-stimulated fibroblasts); endogenous in cells; host or cells: NIH3T3 fibroblasts stimulated with EGF
T1 sequence (P42225 1-749): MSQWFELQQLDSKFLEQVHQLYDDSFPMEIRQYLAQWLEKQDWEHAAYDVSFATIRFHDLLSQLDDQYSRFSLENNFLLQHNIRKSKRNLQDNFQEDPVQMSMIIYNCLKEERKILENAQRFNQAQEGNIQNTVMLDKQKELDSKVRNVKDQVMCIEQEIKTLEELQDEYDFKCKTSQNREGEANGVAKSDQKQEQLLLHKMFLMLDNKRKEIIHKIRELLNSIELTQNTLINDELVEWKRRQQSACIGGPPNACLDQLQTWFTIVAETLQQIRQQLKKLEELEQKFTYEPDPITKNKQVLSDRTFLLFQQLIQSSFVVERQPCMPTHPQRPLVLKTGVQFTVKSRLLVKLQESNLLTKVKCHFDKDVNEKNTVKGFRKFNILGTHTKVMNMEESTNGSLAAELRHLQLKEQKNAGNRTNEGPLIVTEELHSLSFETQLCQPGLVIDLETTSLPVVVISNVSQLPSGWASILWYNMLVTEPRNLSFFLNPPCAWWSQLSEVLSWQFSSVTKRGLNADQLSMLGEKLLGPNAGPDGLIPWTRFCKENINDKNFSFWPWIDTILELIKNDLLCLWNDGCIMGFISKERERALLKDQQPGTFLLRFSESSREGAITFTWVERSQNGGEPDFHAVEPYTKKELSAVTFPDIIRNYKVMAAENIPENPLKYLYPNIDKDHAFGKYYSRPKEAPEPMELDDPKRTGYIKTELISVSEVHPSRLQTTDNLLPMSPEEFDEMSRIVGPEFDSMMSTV
Procedure: as §4, §5

## CC(C)CC(NC(=O)C(Cc1ccc(OP(=O)(O)O)cc1)NC(=O)c1ccc(C#N)cc1)C(=O)O (stereo not drawn) [ISS 610]
MDA-MB-231
  cell proliferation: significantly suppresses proliferation
MDA-MB-453
  cell proliferation: no effect on cell proliferation
MDA-MB-435
  cell proliferation: significantly suppresses proliferation
NIH3T3
  percent of apoptotic cells: 0.3%
NIH3T3/v-Src [1]; NIH3T3/v-Src, 1 mM, Apo-BrdU, flow cytometry
  percent of apoptotic cells: 21.4%
NIH3T3/v-Src [1]; Src-transformed fibroblasts
  incorporated BrdUTP compared to controls (in words): dramatic increases in incorporated BrdUTP
NIH3T3/v-Src [2]
  growth in soft-agar suspension: significantly suppressed
Stat5:Stat5
  IC50: 285 µM
Stat1:Stat1
  IC50: 310 µM
